Values of other authors, collected in patent US20030235609A1, “Use of cholinesterase antagonists to treat insulin resistance” (priority 2002, published 2003).

Test system: muscarinic receptor
Details: cats

Compound	Dose required to produce a full insulin resistance (administered into the portal vein)	Dose achieving a similar degree of insulin resistance
COc1ccccc1CNCCCCCCNCCCCCCCCNCCCCCCNCc1ccccc1OC [methoctramine]	10^−6 μmol/kg	
CN1CCN(CC(=O)N2c3ccccc3C(=O)Nc3cccnc32)CC1 [pirenzepine]		10^7 mmol/kg
